Reference: ChEMBL document CHEMBL1201862, “PubChem BioAssay data set” (2004)
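These data come from cells grown in 96-well plates and exposed to compound for 48 hours at five concentrations. Abbreviation: GI50, concentration required for 50% inhibition of growth.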 Activity calls are given as the source filed them. Cut-off read from the data, not from the text of the source: active = GI50 up to about 1.1 µM and inactive = higher.

Experiments:
Experiment in all cases: NCI tumour cell line growth inhibition, 48 h
786-0 = system: 786-0
CCRF-CEM = system: CCRF-CEM
DU-145 = system: DU-145
HL-60 = system: HL-60
HOP-62 = system: HOP-62
Hs-578T = system: Hs-578T
IGROV-1 = system: IGROV-1
NCI-H23 = system: NCI-H23
NCI-H522 = system: NCI-H522
OVCAR-8 = system: OVCAR-8
PC-3 = system: PC-3
SF-539 = system: SF-539
SK-MEL-28 = system: SK-MEL-28
SK-OV-3 = system: SK-OV-3
SN12C = system: SN12C
SNB-75 = system: SNB-75
TK-10 = system: TK-10
UACC-257 = system: UACC-257
UO-31 = system: UO-31

For `O=C1N/C(=N/N=C\C(O)C(O)C(O)C(O)CO)N/C1=C\c1ccc(Cl)cc1` (stereo not drawn), the GI50 (786-0) was 5.9 µM (inactive), the GI50 (CCRF-CEM) was 4.89 µM (inactive) and the GI50 (DU-145) was 15.2 µM (inactive). For the same molecule, the GI50 (HL-60) was 25.3 µM (inactive), the GI50 (HOP-62) was 2.72 µM (inactive) and the GI50 (Hs-578T) was 2.48 µM (inactive). The GI50 (IGROV-1) was 12.4 µM (inactive), the GI50 (NCI-H23) was 5.32 µM (inactive) and the GI50 (NCI-H522) was 2.75 µM (inactive). The GI50 (OVCAR-8) was 1.53 µM (inactive), the GI50 (PC-3) was 5.52 µM (inactive) and the GI50 (SF-539) was 0.332 µM (active). The GI50 (SK-MEL-28) was 8.55 µM (inactive), the GI50 (SK-OV-3) was 16.6 µM (inactive) and the GI50 (SN12C) was 1.51 µM (inactive). For the same molecule, the GI50 (SNB-75) was 2.3 µM (inactive), the GI50 (TK-10) was 4.8 µM (inactive) and the GI50 (UACC-257) was 14.5 µM (inactive). For the same molecule, the GI50 (UO-31) was 44.1 µM (inactive).

In the case of `Cc1cc(O)c2c(c1)C(=O)C(c1c(C)cc3c(c1O)C(=O)C1OC1C3=O)=CC2=O` (stereo not drawn), the GI50 (786-0) is reported as 1.64 µM (inactive), the GI50 (CCRF-CEM) is reported as 0.0667 µM (active) and the GI50 (DU-145) is reported as 6.7 µM (inactive). For the same molecule, the GI50 (HL-60) was 0.0175 µM (active), the GI50 (HOP-62) was 13.1 µM (inactive) and the GI50 (Hs-578T) was 4.16 µM (inactive). For the same molecule, the GI50 (IGROV-1) was 9.1 µM (inactive), the GI50 (NCI-H23) was 8.97 µM (inactive) and the GI50 (NCI-H522) was 0.469 µM (active). For the same molecule, the GI50 (OVCAR-8) was 4.11 µM (inactive), the GI50 (PC-3) was 12.5 µM (inactive) and the GI50 (SF-539) was 4.48 µM (inactive). The GI50 (SK-MEL-28) was 1.94 µM (inactive), the GI50 (SK-OV-3) was 17.7 µM (inactive) and the GI50 (SN12C) was 3.44 µM (inactive). The GI50 (SNB-75) was 12.4 µM (inactive), the GI50 (TK-10) was 1.1 µM (active) and the GI50 (UACC-257) was 4.74 µM (inactive). The GI50 (UO-31) was 1.8 µM (inactive).

In the case of `C[S+]([O-])c1ncc2c(n1)-c1ccccc1OC2` (stereo not drawn), the GI50 (786-0) is reported as > 100 µM (inactive), the GI50 (CCRF-CEM) is reported as > 100 µM (inactive) and the GI50 (DU-145) is reported as 38.6 µM (inactive). The GI50 (HL-60) was 36.7 µM (inactive), the GI50 (HOP-62) was > 100 µM (inactive) and the GI50 (Hs-578T) was 63.4 µM (inactive). The GI50 (IGROV-1) was 49.1 µM (inactive), the GI50 (NCI-H23) was > 100 µM (inactive) and the GI50 (NCI-H522) was > 100 µM (inactive). For the same molecule, the GI50 (OVCAR-8) was > 100 µM (inactive), the GI50 (PC-3) was > 100 µM (inactive) and the GI50 (SF-539) was > 100 µM (inactive). For the same molecule, the GI50 (SK-MEL-28) was > 100 µM (inactive), the GI50 (SK-OV-3) was > 100 µM (inactive) and the GI50 (SN12C) was 47 µM (inactive). The GI50 (SNB-75) was > 100 µM (inactive), the GI50 (TK-10) was 45.7 µM (inactive) and the GI50 (UACC-257) was 40.3 µM (inactive). The GI50 (UO-31) was 22.3 µM (inactive).

`CCOC(=O)c1c[nH]cc1-c1cn(S(=O)(=O)c2ccccc2)cc1C` was tested, and the GI50 (786-0) was 37.1 µM (inactive), the GI50 (CCRF-CEM) was 24.9 µM (inactive) and the GI50 (DU-145) was 50.7 µM (inactive). For the same molecule, the GI50 (HL-60) was 26.2 µM (inactive), the GI50 (HOP-62) was 31.5 µM (inactive) and the GI50 (Hs-578T) was 11.9 µM (inactive). The GI50 (IGROV-1) was 26.9 µM (inactive), the GI50 (NCI-H23) was 24.6 µM (inactive) and the GI50 (NCI-H522) was 15.6 µM (inactive). The GI50 (OVCAR-8) was 28.7 µM (inactive), the GI50 (PC-3) was 18.6 µM (inactive) and the GI50 (SF-539) was 21.9 µM (inactive). The GI50 (SK-MEL-28) was 19.8 µM (inactive), the GI50 (SK-OV-3) was 25.9 µM (inactive) and the GI50 (SN12C) was 25.2 µM (inactive). For the same molecule, the GI50 (SNB-75) was 15.3 µM (inactive), the GI50 (TK-10) was 35.6 µM (inactive) and the GI50 (UACC-257) was 17.1 µM (inactive). For the same molecule, the GI50 (UO-31) was 27.5 µM (inactive).

With `COC(=O)C1(Cc2ccc3c(c2)CCC3)Cc2ccccc2C1=O` (stereo not drawn) the GI50 (786-0) was 24.5 µM (inactive), the GI50 (CCRF-CEM) was 6.97 µM (inactive) and the GI50 (DU-145) was 16.6 µM (inactive). For the same molecule, the GI50 (HL-60) was 3.12 µM (inactive), the GI50 (HOP-62) was 14.2 µM (inactive) and the GI50 (Hs-578T) was 13.4 µM (inactive). The GI50 (IGROV-1) was 14 µM (inactive), the GI50 (NCI-H23) was 19 µM (inactive) and the GI50 (NCI-H522) was 7.66 µM (inactive). The GI50 (OVCAR-8) was 26.1 µM (inactive), the GI50 (PC-3) was 7.69 µM (inactive) and the GI50 (SF-539) was 16 µM (inactive). For the same molecule, the GI50 (SK-MEL-28) was 7.14 µM (inactive), the GI50 (SK-OV-3) was 15.7 µM (inactive) and the GI50 (SN12C) was 27.6 µM (inactive). For the same molecule, the GI50 (SNB-75) was 10.8 µM (inactive), the GI50 (TK-10) was 12.3 µM (inactive) and the GI50 (UACC-257) was 18.5 µM (inactive). The GI50 (UO-31) was 17.1 µM (inactive).

For `COC(=O)c1ccccc1CC(Cc1ccc2c(c1)CCC2)C(=O)OC` (stereo not drawn), the GI50 (786-0) was > 100 µM (inactive), the GI50 (CCRF-CEM) was 47.3 µM (inactive) and the GI50 (DU-145) was > 100 µM (inactive). For the same molecule, the GI50 (HL-60) was 45.9 µM (inactive), the GI50 (HOP-62) was > 100 µM (inactive) and the GI50 (Hs-578T) was > 100 µM (inactive). For the same molecule, the GI50 (IGROV-1) was > 100 µM (inactive), the GI50 (NCI-H23) was > 100 µM (inactive) and the GI50 (NCI-H522) was 66.1 µM (inactive). The GI50 (OVCAR-8) was > 100 µM (inactive), the GI50 (PC-3) was 93.3 µM (inactive) and the GI50 (SF-539) was > 100 µM (inactive). For the same molecule, the GI50 (SK-MEL-28) was > 100 µM (inactive), the GI50 (SK-OV-3) was > 100 µM (inactive) and the GI50 (SN12C) was > 100 µM (inactive). The GI50 (SNB-75) was 98.4 µM (inactive), the GI50 (TK-10) was > 100 µM (inactive) and the GI50 (UACC-257) was 34.6 µM (inactive). For the same molecule, the GI50 (UO-31) was > 100 µM (inactive).

In the case of `S=c1sc2nc(Cl)nc(Cl)c2s1`, the GI50 (786-0) is reported as 6.21 µM (inactive), the GI50 (CCRF-CEM) is reported as 0.598 µM (active) and the GI50 (DU-145) is reported as 16 µM (inactive). For the same molecule, the GI50 (HL-60) was 0.442 µM (active), the GI50 (HOP-62) was 19.9 µM (inactive) and the GI50 (Hs-578T) was 24 µM (inactive). For the same molecule, the GI50 (IGROV-1) was 13.8 µM (inactive), the GI50 (NCI-H23) was 16.9 µM (inactive) and the GI50 (NCI-H522) was 6.84 µM (inactive). The GI50 (OVCAR-8) was 9.33 µM (inactive), the GI50 (PC-3) was 12.4 µM (inactive) and the GI50 (SF-539) was 20.6 µM (inactive). The GI50 (SK-MEL-28) was 16.1 µM (inactive), the GI50 (SK-OV-3) was 17.7 µM (inactive) and the GI50 (SN12C) was 14.5 µM (inactive). For the same molecule, the GI50 (SNB-75) was 17.3 µM (inactive), the GI50 (TK-10) was 13.6 µM (inactive) and the GI50 (UACC-257) was 15.3 µM (inactive). For the same molecule, the GI50 (UO-31) was 11.1 µM (inactive).
